Test results published in patent US20260258010A1, “THIOPHENE-2-CARBOXYLIC ACID DERIVATIVE, AND PREPARATION METHOD THEREFOR AND MEDICAL USE THEREOF” (CHINA PHARMACEUTICAL UNIVERSITY, priority 2023, published 2026).
Read-outs that look alike come from different tables or passages of the source.

Target: T1, P2Y14 receptor (Homo sapiens, UniProt Q15391)
T1 construct: expressed in transfected cells; host or cells: HEK293
T1 sequence (Q15391 1-338): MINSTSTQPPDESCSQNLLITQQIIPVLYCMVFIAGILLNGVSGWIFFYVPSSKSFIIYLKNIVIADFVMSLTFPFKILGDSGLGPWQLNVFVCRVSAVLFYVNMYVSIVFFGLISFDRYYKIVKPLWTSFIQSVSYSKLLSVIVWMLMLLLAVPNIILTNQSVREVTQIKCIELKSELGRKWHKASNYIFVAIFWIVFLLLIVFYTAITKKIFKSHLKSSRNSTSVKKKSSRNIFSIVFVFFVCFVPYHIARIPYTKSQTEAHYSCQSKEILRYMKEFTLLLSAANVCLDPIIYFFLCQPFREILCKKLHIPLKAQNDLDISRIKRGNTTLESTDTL
Assay: cAMP inhibition assay in HEK293 cells stably transfected with the P2Y14 receptor (UDPG-stimulated, cAMP Glo)
Format: cell-based
Procedure: An HEK293 cell strain stably transfected with the P2Y14 receptor was cultured in a DMEM culture medium (containing […], 100 U/mL penicillin, and 100 μg/mL streptomycin). Before the experiment, the cells were seeded into a culture plate at a density of 1×10^5 cells/well, and a serum-free culture medium was used instead. The cells were cultured at 37° C. with […] and 5% CO2 humidity. IBMX was added to inhibit the activity of PDEs, thereby ensuring a relatively high level of cAMP. The AC agonist Forskolin (30 μM) was adopted to stimulate the production of cellular cAMP. Test compounds at different concentrations (0.01 nm, 0.1 nm, 1 nm, 10 nm, and 100 nm) were added in advance, and PPTN was used as a positive control. Subsequently, 1 μM P2Y14 receptor agonist UDPG was added, and after 4 h, the content of intracellular cAMP was measured using a cAMP Glo™ Assay kit (PROMEGA Co. Ltd., USA). The inhibition rate was calculated based on the cAMP content.

[1] = 100 nM compound, HEK293 stably transfected with P2Y14 receptor, 30 μM Forskolin, 1 μM UDPG, 4 h, inhibition rate from cAMP content, read-out: Inhibition @ 100 nM

SMILES	inhibition at 0.1 µM [1]	inhibition at 0.1 µM (HEK293, read-out: Inhibition @ 100 nM)
CC(=O)Nc1ccc(Oc2sc(C(=O)O)cc2NC(=O)c2ccc(C)cc2)cc1 [Compound 3-23]	81.1%	–
Cc1ccc(Oc2sc(C(=O)O)cc2NC(=O)c2ccc(C(=O)O)cc2)cn1 [Compound 15-11]	79.3%	–
Cc1ccc(C(=O)Nc2cc(C(=O)O)sc2Oc2ccc(C(C)C)cc2)cc1 [Compound 3-21]	54.3%	–
C#Cc1ccc(C(=O)Nc2cc(C(=O)O)sc2Oc2ccc(C)nc2)cc1 [Compound 15-7]	94.6%	–
Cc1ccc(C(=O)Nc2cc(C(=O)O)sc2Nc2ccc(C(C)C)cc2)cc1 [Compound 9-4]	59.8%	–
COc1ccc(C(=O)Nc2cc(C(=O)O)sc2Oc2ccc(C)nc2)cc1 [Compound 15-10]	91.3%	–
Cc1ccc(C(=O)Nc2cc(C(=O)O)sc2Oc2ccc(C(=O)NCCC3CCOCC3)cc2)cc1 [Compound 3-25]	49.5%	–
CCCc1ccc(Oc2sc(C(=O)O)cc2NC(=O)c2ccc(C)cc2)cc1 [Compound 3-20]	66.3%	–
Cc1ccc(Oc2sc(C(=O)O)cc2NC(=O)c2cnc(C)cn2)cn1 [Compound 18-2]	48.2%	–
Cc1ccc(C(=O)Nc2cc(C(=O)O)sc2Oc2ccc(C(C)(C)C)cc2)cc1 [Compound 3-22]	34.6%	–
Cc1ccc(C(=O)Nc2cc(C(=O)O)sc2Oc2ccc(OC(F)(F)F)cc2)cc1 [Compound 3-10]	32.7%	–
Cc1ccc(C(=O)Nc2cc(C(=O)O)sc2Sc2ccc(F)cc2)cc1 [Compound 12-2]	61.4%	–
Cc1ccc(Oc2sc(C(=O)O)cc2NC(=O)c2ccc(C#N)cc2)cn1 [Compound 15-8]	76.4%	–
Cc1ccc(Oc2sc(C(=O)O)cc2NC(=O)c2ccc(C(F)(F)F)cc2)cn1 [Compound 15-9]	82.1%	–
Cc1ccc(Nc2sc(C(=O)O)cc2NC(=O)c2ccc(C)cc2)cc1 [Compound 8, 4-(4-methylbenzamido)-5-(p-tolylamino)thiophene-2-carboxylic acid]	75.6%	–
Cc1ccc(C(=O)Nc2cc(C(=O)O)sc2Nc2ccc(F)cc2)cc1 [Compound 9-2]	55.7%	–
CCc1ccc(Nc2sc(C(=O)O)cc2NC(=O)c2ccc(C)cc2)cc1 [Compound 9-3]	71.5%	–
Cc1ccc(C(=O)Nc2cc(C(=O)O)sc2Sc2ccccc2)cc1 [Compound 12-1]	57.5%	–
Cc1ccc(Sc2sc(C(=O)O)cc2NC(=O)c2ccc(C)cc2)cc1 [Compound 11, 4-(4-methylbenzamido)-5-(p-tolylthio)thiophene-2-carboxylic acid]	75.6%	–
CCc1ccc(Sc2sc(C(=O)O)cc2NC(=O)c2ccc(C)cc2)cc1 [Compound 12-3]	67.5%	–

Continued, values first:

inhibition at 0.1 µM [1]	inhibition at 0.1 µM (HEK293, read-out: Inhibition @ 100 nM)	SMILES
44.1%	–	Cc1ccc(C(=O)Nc2cc(C(=O)O)sc2Oc2ccccc2)cc1 [Compound 3-1]
88.4%	–	Cc1ccc(Oc2sc(C(=O)O)cc2NC(=O)c2ccc(C)cc2)cc1 [Compound 3-15]
67.4%	–	CCc1ccc(Oc2sc(C(=O)O)cc2NC(=O)c2ccc(C)cc2)cc1 [Compound 3-19]
–	81.3%	Cc1ccc(C(=O)Nc2cc(C(=O)O)sc2Oc2ccc(C)cn2)cc1 [Compound 6-4]
75.5%	–	Cc1ccc(C(=O)Nc2cc(C(=O)O)sc2Oc2ccc(F)cn2)cc1 [Compound 6-5]
75.7%	–	Cc1ccc(Oc2sc(C(=O)O)cc2NC(=O)c2ccc(F)cc2)cn1 [Compound 15-1]
62.6%	–	Cc1ccc(C(=O)Nc2cc(C(=O)O)sc2Oc2ccc(C(F)(F)F)cc2)cc1 [Compound 3-7]
44.1%	–	Cc1ccc(C(=O)Nc2cc(C(=O)O)sc2Oc2ccc(C(=O)O)cc2)cc1 [Compound 3-12]
34.5%	–	CC(=O)c1ccc(Oc2sc(C(=O)O)cc2NC(=O)c2ccc(C)cc2)cc1 [Compound 3-11]
70.4%	–	Cc1ccc(C(=O)Nc2cc(C(=O)O)sc2Oc2ccc(F)cc2)cc1 [Compound 2, 5-(4-fluorophenoxy)-4-(4-methylbenzamido)thiophene-2-carboxylic acid]
